Where a SMILES comes first, the peptide text is derived from it. [ ]: non-standard residue; d: D form. The star is where a group is joined. ξ: configuration not given here. NMeIle(3ξ) = CCC(C)[C@H](NC)C(=O)O; Dab = NCC[C@H](N)C(=O)O; Hexanoyl = CCCCCC(=O)*; Bz = O=C(c1ccccc1)*; NHOH = ON*
Assays:
[1] = biological target: MMP-7 (Homo sapiens (Human), UniProt P09237); experiment: MMP-7 inhibition assay (fluorogenic peptide substrate); format: biochemical; conditions: recombinant MMP-7 8.3 nM, Mca-PLGL-Dpa-AR-NH2 10 μM, 4 hours at room temperature; tested at 1, 10, 100 and 200 μM
Experimental: All the experiments were done in 1× reaction buffer, which was obtained from a 10× reaction buffer solution. The content of the 10× reaction buffer was: 50 mL of 0.5 M Tris-HCl, 1.5 M NaCl, 50 mM CaCl2 and 2 mM sodium azide at pH 7.6. To obtain the 1× reaction buffer 4 mL of the 10× reaction buffer were diluted in 36 mL of H2O.
Recombinant MMP-7 expressed in E. Coli was obtained from Merck-Millipore (catalog number 44270). Mca-PLGL-Dpa-AR-NH2 (fluorogenic peptide substrate) was obtained from R&D Systems (catalog number ES001).
Preparation of the MMP-7 for the activity assay: MMP-7 was provided as a stock solution (2.1 mg/mL). The enzyme was diluted in water to a final concentration of 0.005 mg/mL.
MMP-7 peptide substrate was provided as a solid (1 mg). A 4 mM stock solution of the substrate in DMSO was obtained by adding 214.7 μL of DMSO. After which, a 100 μM solution of substrate was prepared in 1× reaction buffer.
Procedure: The enzymatic assays were performed in 96-well microtiter plate, which allowed simultaneous monitoring of multiple reactions. For each reaction, 84.6 μL of 1× reaction buffer (pH 7.6), 3.4 μL of MMP-7 (final concentration 8.3 nM) and 2 μL of the corresponding new compound were added to each well. A stock solution of new compound was prepared in DMSO (100 mM), and dilutions were prepared from this stock solution with DMSO. Finally, to the mixture contained in each well 10 μL of the substrate were added (final concentration 10 μM). The reaction was incubated for 4 hours at room temperature in an orbital shaker (90 rpm).
The inhibitory activity of the new compound was measured fluorimetrically. The excitation and emission wavelengths were 320 and 405 nm, respectively.
Inhibitory activity at several concentration points (1, 10, 100 and 200 μM) were measured for each compound. The inhibitory activity on MMP-1, MMP-3 and MMP-7 was calculated according to eq 1 and The IC50 value was calculated as explained above for MMP-2 and MMP-9.

[2] = Parallel artificial membrane permeability assay (PAMPA), Blood-Brain Barrier; format: in vitro ADME; conditions: initial concentration 200 μM, pH 7.4, 4 hours; for Papp at 4 h, 200 µM: pig, read-out: Effective permeability Pe
Experimental: Parallel Artificial Membrane Permeability Assay (PAMPA)
Parallel artificial membrane permeability assay (PAMPA) described in Kansy et al., J. M. Chem. 1998; 41(7):1007-10 was used here to determine the capacity of compounds to cross the Blood-Brain Barrier (BBB) by passive diffusion (Di L et al., Eur. J. Med. Chem. 2003; 38(3):223-32). The effective permeability (Pe) of the compounds was measured at an initial concentration of 200 μM. The buffer solution was prepared from a commercial concentrated one following the manufacturer's instructions. pH was adjusted to 7.4 using a 0.5 M NaOH solution. A stock solution of new compound was prepared in DMSO and diluted with buffer solution to a final 200 μM concentration (0.5% DMSO content). The PAMPA sandwich was separated and each donor well was filled with […] of the compound solution. The acceptor plate was placed into the donor plate, ensuring that the underside of the membrane was in contact with buffer. 4 μL of the mixture of phospholipids (20 mg/ml) in dodecane was added to the filter of each well, and 200 μL of buffer solution was added to the each acceptor well. The plate was covered and incubated at room temperature in a saturated humidity atmosphere for 4 hours under orbital agitation at 100 rpm. After 4 hours, the contents of the acceptor and donor compartments were analyzed by HPLC: 150 μL of each well from the donor plate and 150 μL of each well from the acceptor plate were transferred to HPLC vials, injecting each sample into a reverse-phase C18 column (150 mm×4.6 mm×5 μm, 100 Å) (100 μL/injection from the acceptor wells, 10 μL/injection from the donor wells and for t0 references). Transport was also confirmed using mass spectrometry (MALDI-TOF).
The phospholipid mixture used was a porcine polar brain lipid extract, provided by Avanti polar lipids, with the following composition: 12.6% phosphatidylcholine (PC), 33.1% phosphatidylethanolamine (PE), 18.5% phosphatidylserine (PS), 4.1% phosphatidylinositol (PI), 0.8% phosphatidic acid and 30.9% of other compounds.
The effective permeability (Pe) after 4 hours was calculated using equation 2 and the percentage of transport (T %) was calculated using equation 3: […]
Ca(t) is the compound concentration in the acceptor well at time t
And Cd(t0) is the compound concentration in the donor well at t0.

Chain of MMP-7 (P09237 95-267): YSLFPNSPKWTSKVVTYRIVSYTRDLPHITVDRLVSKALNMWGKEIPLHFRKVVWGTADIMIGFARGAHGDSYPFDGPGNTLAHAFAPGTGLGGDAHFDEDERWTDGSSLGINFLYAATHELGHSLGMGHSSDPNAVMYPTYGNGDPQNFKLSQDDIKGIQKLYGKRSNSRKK

Row | SMILES | IC50 [1] [µM] | percentage of transport % T [2] [%] | Papp at 4 h, 200 µM [2] [×10⁻⁶ cm/s]
1 | CCCCCC(=O)N1CCC[C@H]1C(=O)N(C)[C@H](C(=O)N[C@@H](CCNC(=O)c1ccccc1)C(=O)NO)C(C)CC (stereo partly drawn) [Example 15, (2S)—N-[(1S)-1-[[(1S)-3-benzamido-1-(hydroxycarbamoyl)propyl]carbamoyl]-2-methyl-butyl]-N-methyl-1-hexanoyl-pyrrolidine-2-carboxamide] (Hexanoyl-Pro-[NMeIle(3ξ)]-[Dab](Bz)-{NHOH}) | 41.2 | 2.3 | 1.1
2 | CCC(C)[C@@H](C(=O)N[C@@H](CCNC(=O)c1ccc(F)cc1)C(=O)NO)N(C)C(=O)[C@@H]1CCCN1C(C)=O (stereo partly drawn) [Example 1, (2S)-1-acetyl-N-[(1S)-1-[[(1S)-3-[(4-fluorobenzoyl)amino]-1-(hydroxycarbamoyl)propyl]carbamoyl]-2-methyl-butyl]-N-methyl-pyrrolidine-2-carboxamide] | 23 | 0.4 | 0.094
3 | CCCCCCCC(=O)N1CCC[C@H]1C(=O)N(C)[C@H](C(=O)N[C@@H](CCNC(=O)c1cc(F)cc(F)c1)C(=O)NO)C(C)CC (stereo partly drawn) [Example 6, (2S)—N-[(1S)-1-[[(1S)-3-[(3,5-difluorobenzoyl)amino]-1-(hydroxycarbamoyl)propyl]carbamoyl]-2-methyl-butyl]-N-methyl-1-octanoyl-pyrrolidine-2-carboxamide] | 52.6 | 14.3 | 3.5

Continued, values first:

Row | IC50 [1] [µM] | percentage of transport % T [2] [%] | Papp at 4 h, 200 µM [2] [×10⁻⁶ cm/s] | SMILES
4 | 6.61 | 9.3 | 2.3 | CCCCCC(=O)N1CCC[C@H]1C(=O)N(C)[C@H](C(=O)N[C@@H](CCNC(=O)c1cc(F)cc(F)c1)C(=O)NO)C(C)CC (stereo partly drawn) [Example 3, (2S)—N-[(1S)-1-[[(1S)-3-[(3,5-difluorobenzoyl)amino]-1-(hydroxycarbamoyl)propyl]carbamoyl]-2-methyl-butyl]-1-hexanoyl-N-methyl-pyrrolidine-2-carboxamide]
5 | 4.1 | 9.0 | 4.7 | CCCC(CCC)C(=O)N1CCC[C@H]1C(=O)N(C)[C@H](C(=O)N[C@@H](CCNC(=O)c1cc(F)cc(F)c1)C(=O)NO)C(C)CC (stereo partly drawn) [Example 8, (2S)—N-[(1S)-1-[[(1S)-3-[(3,5-difluorobenzoyl)amino]-1-(hydroxycarbamoyl)propyl]carbamoyl]-2-methyl-butyl]-N-methyl-1-(2-propylpentanoyl)pyrrolidine-2-carboxamide]

Reference: patent publication US10414797B2, “Gelatinase inhibitors and use thereof” (Iproteos S.L, priority 2015, dated 2019)
